This passage reports pest or weed control results from US20180002319A1, “MACROCYCLIC PICOLINAMIDE COMPOUNDS WITH FUNGICIDAL ACTIVITY” (DOW AGROSCIENCES LLC, priority 2014, published 2018).

In assay [1] the test system is Puccinia triticina. As to the kind of experiment: Wheat Brown Rust (PUCCRT) fungicidal activity. It counts as in vivo. As to conditions: High Volume application, 100 ppm. An outline of the steps: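 Disease severity (0–100%) on first leaves compared with untreated plants gives percent control. Plants (wheat var. Yuma) received spore inoculum before or after run-off spraying with compound in acetone/Triton X-100 water, held overnight at 22° C, 100% RH, then in a 24° C greenhouse.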

Assay [2] concerns Zymoseptoria tritici. As to the kind of experiment: Leaf Blotch of Wheat (SEPTTR) fungicidal activity. It counts as in vivo. As to conditions: High Volume application, 100 ppm, wheat leaf blotch. An outline of the steps:
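Wheat seedlings (Yuma, first leaf emerged) were sprayed to run-off with compound in acetone/water containing Triton X-100 and inoculated with Z. tritici spores before or after treatment. Percent disease control comes from 0–100% severity on treated versus untreated plants.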

[3] abbreviates: 24 h, 1 day protectant, read-out: PUCCRT disease control, 1DP (1 Day Protectant).
The mark [4] stands for this setting: 72 h, 3 day curative, read-out: PUCCRT disease control, 3DC (3 Day Curative).
Setting [5] is: 24 h, 1 day protectant, read-out: SEPTTR disease control, 1DP (1 Day Protectant).
Setting [6] is: 72 h, 3 day curative, read-out: SEPTTR disease control, 3DC (3 Day Curative).

Like-named read-outs stand apart in the source and are kept apart here. Some results are limits rather than exact numbers.

Regarding `COc1ccnc(C(=O)N[C@H]2CCCC[C@@H]3OC(C)(C)O[C@H]3[C@H](C)OC2=O)c1O` [Compound 104], the pest or weed control at 100 ppm was greater than 80% in assay [1] (setting [3]), greater than 80% in assay [1] (setting [4]), less than 80% in assay [2] (setting [5]) and less than 80% in assay [2] (setting [6]).

With `COc1ccc(CO[C@H]2[C@H](C)OC(=O)[C@@H](NC(=O)c3nccc(OC)c3O)CCOC[C@@H]2OCc2ccc(OC)cc2)cc1` [Compound 106], the results for the pest or weed control at 100 ppm in assay [1] (setting [3]), in assay [2] (setting [5]) and in assay [2] (setting [6]) were greater than 80%, greater than 80% and less than 80%, respectively.

Turning to `COc1ccnc(C(=O)N[C@H]2CCCC[C@H](OC)[C@@H](OC3CCCC3)[C@H](C)OC2=O)c1O` [Compound 107], the pest or weed control at 100 ppm is greater than 80% in assay [1] (setting [3]), greater than 80% in assay [1] (setting [4]), greater than 80% in assay [2] (setting [5]) and less than 80% in assay [2] (setting [6]).

As to `COc1ccnc(C(=O)N[C@H]2CCCC[C@H](OC3CCCC3)[C@@H](OC)[C@H](C)OC2=O)c1O` [Compound 108], the pest or weed control at 100 ppm in assay [1] (setting [3]) was less than 80%; in assay [1] (setting [4]), greater than 80%; in assay [2] (setting [5]), less than 80%; in assay [2] (setting [6]), less than 80%.

Take `COc1ccnc(C(=O)N[C@H]2CCCC[C@H](Oc3ccccc3)[C@@H](OC3CCCC3)[C@H](C)OC2=O)c1O` [Compound 109]: the pest or weed control at 100 ppm in assay [1] (setting [3]) is greater than 80%; in assay [1] (setting [4]), less than 80%; in assay [2] (setting [5]), greater than 80%; in assay [2] (setting [6]), less than 80%.

Consider `COc1ccnc(C(=O)N[C@H]2CCOC[C@H](Oc3ccccc3)[C@@H](Oc3ccccc3)[C@H](C)OC2=O)c1O` [Compound 110], for which the pest or weed control at 100 ppm in assay [1] (setting [3]), in assay [1] (setting [4]) and in assay [2] (setting [5]) was greater than 80% throughout.

Take `CCCOC(=O)O[C@H]1CCCC[C@H](NC(=O)c2nccc(OC)c2O)C(=O)O[C@@H](C)[C@@H]1OCC(C)C` [Compound 111]: the pest or weed control at 100 ppm in assay [1] (setting [3]) is less than 80%; in assay [1] (setting [4]), less than 80%; in assay [2] (setting [5]), less than 80%; in assay [2] (setting [6]) it was greater than 80%.

Regarding `COc1ccnc(C(=O)N[C@H]2COCCC[C@@H](OCC(C)C)[C@H](C)OC2=O)c1O` [Compound 112], the pest or weed control at 100 ppm in assay [1] (setting [3]), in assay [1] (setting [4]), in assay [2] (setting [5]) and in assay [2] (setting [6]) was less than 80% each time.

`COc1ccnc(C(=O)N[C@H]2CCOC[C@H](OC)[C@@H](Oc3ccccc3)[C@H](C)OC2=O)c1O` [Compound 113]: the pest or weed control at 100 ppm in assay [1] (setting [3]), in assay [1] (setting [4]), in assay [2] (setting [5]) and in assay [2] (setting [6]) was greater than 80% throughout.

Turning to `CCCO[C@H]1COCC[C@H](NC(=O)c2nccc(OC)c2O)C(=O)O[C@@H](C)[C@@H]1Oc1ccccc1` [Compound 114], the pest or weed control at 100 ppm in assay [1] (setting [3]), in assay [1] (setting [4]), in assay [2] (setting [5]) and in assay [2] (setting [6]) was greater than 80% each time.

For `COc1ccnc(C(=O)N[C@H]2CCOC[C@H](OCC(C)C)[C@@H](OCC(C)C)[C@H](C)OC2=O)c1O` [Compound 116], the pest or weed control at 100 ppm in assay [1] (setting [3]), in assay [1] (setting [4]) and in assay [2] (setting [6]) was less than 80% in each case.

Take `COc1ccnc(C(=O)N[C@H]2CCOC[C@H](OC(=O)C(C)C)[C@@H](Oc3ccccc3)[C@H](C)OC2=O)c1O` [Compound 117]: the results for the pest or weed control at 100 ppm in assay [1] (setting [3]), in assay [2] (setting [5]) and in assay [2] (setting [6]) were less than 80%, greater than 80% and less than 80%, respectively.

With `COc1ccnc(C(=O)N[C@H]2CCOC[C@H](OCC(C)C)[C@@H](Oc3ccccc3)[C@H](C)OC2=O)c1O` [Compound 118], the values for the pest or weed control at 100 ppm in assay [1] (setting [3]), in assay [1] (setting [4]) and in assay [2] (setting [5]) were greater than 80%, less than 80% and greater than 80%, respectively.

For `C[C@@H]1OC(=O)[C@@H](NC(=O)c2ncccc2O)CCCC[C@H](CC2CCCC2)[C@H]1Oc1ccccc1` [Compound 120], the pest or weed control at 100 ppm in assay [1] (setting [3]) is greater than 80%; in assay [2] (setting [5]) it was less than 80%; in assay [2] (setting [6]), greater than 80%.

As for `COc1ccnc(C(=O)N[C@H]2CCCC[C@H](CC3CCCC3)[C@@H](Oc3ccccc3)[C@H](C)OC2=O)c1O` [Compound 121], the pest or weed control at 100 ppm in assay [1] (setting [3]) was less than 80%; in assay [2] (setting [5]), less than 80%; in assay [2] (setting [6]) it was greater than 80%.

Regarding `C=CCO[C@@H]1[C@@H](CC2CCCC2)CCCC[C@H](NC(=O)c2nccc(OC)c2O)C(=O)O[C@H]1C` [Compound 122], the pest or weed control at 100 ppm in assay [1] (setting [3]), in assay [2] (setting [5]) and in assay [2] (setting [6]) was less than 80% in each case.

Consider `COc1ccnc(C(=O)N[C@H]2CCCC[C@H](CC3CCCC3)[C@@H](OC(=O)C(C)C)[C@H](C)OC2=O)c1O` [Compound 123], for which the pest or weed control at 100 ppm in assay [1] (setting [3]) and in assay [2] (setting [6]) was less than 80% in each case.

Turning to `CCCO[C@@H]1[C@@H](CC2CCCC2)CCCC[C@H](NC(=O)c2nccc(OC)c2O)C(=O)O[C@H]1C` [Compound 124], the pest or weed control at 100 ppm in assay [1] (setting [3]), in assay [1] (setting [4]), in assay [2] (setting [5]) and in assay [2] (setting [6]) was less than 80% each time.

Regarding `COc1ccnc(C(=O)N[C@H]2CCCC[C@H](CC3CCCC3)[C@@H](OC)[C@H](C)OC2=O)c1O` [Compound 125], the pest or weed control at 100 ppm is greater than 80% in assay [1] (setting [3]), less than 80% in assay [1] (setting [4]), less than 80% in assay [2] (setting [5]) and less than 80% in assay [2] (setting [6]).

With `COc1ccnc(C(=O)N[C@H]2COCC[C@H](Cc3ccccc3)[C@@H](Oc3ccccc3)[C@H](C)OC2=O)c1O` [Compound 126], the pest or weed control at 100 ppm in assay [1] (setting [3]) is greater than 80%; in assay [1] (setting [4]), greater than 80%; in assay [2] (setting [5]), greater than 80%; in assay [2] (setting [6]), less than 80%.

Regarding `COc1ccnc(C(=O)N[C@H]2CCCC[C@H](Cc3ccccc3)[C@@H](OC(=O)C(C)C)[C@H](C)OC2=O)c1O` [Compound 127], the pest or weed control at 100 ppm in assay [1] (setting [3]) is greater than 80%; in assay [1] (setting [4]) it was greater than 80%; in assay [2] (setting [5]) it was greater than 80%; in assay [2] (setting [6]), less than 80%.

On to `COc1ccnc(C(=O)N[C@H]2CCCC[C@H](Cc3ccccc3)[C@@H](Oc3ccccc3)[C@H](C)OC2=O)c1O` [Compound 128], for which the pest or weed control at 100 ppm in assay [1] (setting [3]) is greater than 80%; in assay [1] (setting [4]), greater than 80%; in assay [2] (setting [5]), greater than 80%; in assay [2] (setting [6]), less than 80%.

On to `COc1ccc(C[C@H]2CCOC[C@H](NC(=O)c3nccc(OC)c3O)C(=O)O[C@@H](C)[C@@H]2Oc2ccccc2)cc1` [Compound 129], for which the pest or weed control at 100 ppm in assay [1] (setting [3]), in assay [1] (setting [4]) and in assay [2] (setting [5]) was greater than 80% in each case.

For the compound `CC[C@H]1CCOC[C@H](NC(=O)c2nccc(OC)c2O)C(=O)O[C@@H](C)[C@@H]1Oc1ccccc1` [Compound 130], the pest or weed control at 100 ppm was greater than 80% in assay [1] (setting [3]), greater than 80% in assay [1] (setting [4]), less than 80% in assay [2] (setting [5]) and greater than 80% in assay [2] (setting [6]).

Consider `CC[C@H]1CCOC[C@H](NC(=O)c2nccc(OC)c2O)C(=O)O[C@@H](C)[C@@H]1OCC(C)C` [Compound 131], for which the pest or weed control at 100 ppm was greater than 80% in assay [1] (setting [3]), greater than 80% in assay [1] (setting [4]) and less than 80% in assay [2] (setting [6]).

Consider `COc1ccnc(C(=O)N[C@H]2COCC[C@H](Cc3ccc(F)cc3)[C@@H](Oc3ccccc3)[C@H](C)OC2=O)c1O` [Compound 132], for which the pest or weed control at 100 ppm in assay [1] (setting [3]), in assay [1] (setting [4]) and in assay [2] (setting [5]) was greater than 80% each time.

On to `COc1ccnc(C(=O)N[C@H]2COCC[C@H](Cc3ccc(F)cc3)[C@@H](OCC3CC3)[C@H](C)OC2=O)c1O` [Compound 133], for which the pest or weed control at 100 ppm was greater than 80% in assay [1] (setting [3]), greater than 80% in assay [1] (setting [4]), less than 80% in assay [2] (setting [5]) and less than 80% in assay [2] (setting [6]).

Consider `COc1ccnc(C(=O)N[C@H]2COCC[C@H](Cc3ccc(F)cc3)[C@@H](OC(=O)C(C)C)[C@H](C)OC2=O)c1O` [Compound 134], for which the pest or weed control at 100 ppm in assay [1] (setting [3]) is greater than 80%; in assay [1] (setting [4]), less than 80%; in assay [2] (setting [5]) it was greater than 80%; in assay [2] (setting [6]), greater than 80%.

With `CC[C@H]1CCOC[C@H](NC(=O)c2nccc(OC)c2O)C(=O)O[C@@H](C)[C@@H]1OC(=O)c1ccccc1` [Compound 135], the pest or weed control at 100 ppm in assay [1] (setting [3]), in assay [1] (setting [4]), in assay [2] (setting [5]) and in assay [2] (setting [6]) was greater than 80% throughout.

As to `CC[C@H]1CCOC[C@H](NC(=O)c2nccc(OC)c2O)C(=O)O[C@@H](C)[C@@H]1OC(=O)C1CC1` [Compound 136], the pest or weed control at 100 ppm in assay [1] (setting [3]) was greater than 80%; in assay [1] (setting [4]), greater than 80%; in assay [2] (setting [6]), less than 80%.
